The subject of this assay is Rat Cerebral Cortex Neuronal Culture. The experiment in a line: Apoptosis induction by Amyloid β peptide (Aβ 25-35) in PGT 40/PGT 70-transfected neurons and inhibiting action of PGE 1. The following applies: Aβ 25-35 exposure 24 hours. The format is cell-based. The source says:
PGT 40 or PGT 70 cDNA was inserted into pTracer-SV 40 vector (Invitrogen) to construct an expression vector. PGT 40 means the brain-type PGT of the present invention. PGT 70 means the lung-type PGT which was disclosed in the prior art literature.
Fetus of 17 days age (viviparous) was ejected from pregnant rat of SD strain and, in an ice-cold L-15 medium (Invitrogen), cerebral cortex was collected from brain of the fetus. After it was finely cut by scissors, cells were dispersed using a kit for dispersing the neurons (Sumilon), sowed on a polyethyleneimine-coated cover glass (diameter: 12 mm; manufactured by Asahi Technoglass) in a living cell density of 1.6×10^5 cells/cm^2 and cultured (at 37° C. with 5% of CO2). […]
After the cells were fixed (at room temperature for 5 minutes) with a 10% neutral buffered formalin solution, they were stained with 0.01 mg/mL Hoechst 33342 (being dissolved in PBS(−); Molecular Probe) and, under a fluorescent microscope, […] total cell numbers and apoptosis cells (the cells which were aggregated and fragmented by chromatin) were counted in random 20 fields for one example whereupon the apoptosis-positive cell percentage (%) was calculated. […]

In the case of “PGT40: the brain-type PGT (prostaglandin transporter) of the present invention, SEQ ID NO: 3, expressed from pTracer-SV 40 vector”, the “effect of PGT expression on anti-apoptosis action of PGE1 (apoptosis-positive cell percentage / apoptosis inhibiting rate)” value (neurons transfected with PGT expression vector, PGE 1 0.01, 0.1, 1 and 10 μM, Hoechst 33342 staining) was “accelerate anti-apotosis action of PGE1”. Turning to `CCCCC[C@H](O)/C=C/[C@H]1[C@H](O)CC(=O)[C@@H]1CCCCCCC(=O)O` [PGE1], the “action of PGE1 on Aβ-induced apoptosis” value (PGE 1 0.01, 0.1, 1 and 10 μM added together with Aβ) was “anti-apotosis action”.

These data come from patent publication US20030032793A1, “Gene of PGT of human brain type” (priority 1999, published 2003).
